Reference: patent publication US20180334447A1, “2,3,4,5-TETRAHYDROPYRIDIN-6-AMINE DERIVATIVES” (JANSSEN PHARMACEUTICA NV, priority 2015, published 2018)

Experiments:
[1] = target: T1, recombinant BACE1 protein (Homo sapiens, UniProt P56817); experiment: BACE1 biochemical FRET based assay - Method 1; conditions: BACE1, 120 minutes at room temperature, pH 5.0; read-out: Biochemical FRET based assay - Method 1 pIC50 (converted)
T1 construct: recombinant BACE1 protein in a final concentration of 1 μg/ml
T1 sequence (P56817 46-501): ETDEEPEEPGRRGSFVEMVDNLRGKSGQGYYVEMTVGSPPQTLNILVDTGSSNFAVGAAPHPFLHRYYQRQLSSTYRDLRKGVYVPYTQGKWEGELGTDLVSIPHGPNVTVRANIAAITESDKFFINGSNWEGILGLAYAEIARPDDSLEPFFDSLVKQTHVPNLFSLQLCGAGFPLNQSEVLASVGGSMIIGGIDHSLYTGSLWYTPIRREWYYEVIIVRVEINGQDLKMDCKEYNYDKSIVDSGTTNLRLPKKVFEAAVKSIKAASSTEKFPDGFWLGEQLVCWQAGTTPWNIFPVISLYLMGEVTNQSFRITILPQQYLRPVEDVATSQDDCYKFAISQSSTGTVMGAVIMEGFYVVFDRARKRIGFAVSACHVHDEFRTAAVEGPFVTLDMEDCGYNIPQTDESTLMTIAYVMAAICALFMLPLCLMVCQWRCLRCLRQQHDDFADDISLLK
Description: (§1) This assay is a Fluorescence Resonance Energy Transfer Assay (FRET) based assay. The substrate for this assay is an APP derived 13 amino acids peptide that contains the ‘Swedish’ Lys-Met/Asn-Leu mutation of the amyloid precursor protein (APP) beta-secretase cleavage site. This substrate also contains two fluorophores: (7-methoxycoumarin-4-yl) acetic acid (Mca) is a fluorescent donor with excitation wavelength at 320 nm and emission at 405 nm and 2,4-Dinitrophenyl (Dnp) is a proprietary quencher acceptor. […] Upon cleavage by BACE1, the fluorophore Mca is separated from the quenching group Dnp, restoring the full fluorescence yield of the donor. The increase in fluorescence is linearly related to the rate of proteolysis.
Briefly in a 384-well format recombinant BACE1 protein in a final concentration of 1 μg/ml is incubated for 120 minutes at room temperature with 10 μm substrate in incubation buffer (40 mM Citrate buffer pH 5.0, 0.04% PEG, 4% DMSO) in the absence or presence of compound. Next the amount of proteolysis is directly measured by fluorescence measurement at T=0 and T=120 (excitation at 320 nm and emission at 405 nm). Results are expressed in RFU (Relative Fluorescence Units), as difference between T120 and T0.
(§2) A best-fit curve is fitted by a minimum sum of squares method to the plot of % Controlmin versus compound concentration. From this an IC50 value (inhibitory concentration causing 50% inhibition of activity) can be obtained.

[2] = test system: Abeta 1-42 produced and secreted into the medium of human neuroblastoma SKNBE2 cells; experiment: Cellular αLisa assay in SKNBE2 cells, Abeta 42; format: cell-based; conditions: SKNBE2 cells expressing hAPP695, incubated for 18 hours; for IC50: Homo sapiens, SKNBE2, 18 h, read-out: Cellular αLisa assay in SKNBE2 cells Abeta 42 pIC50 (converted)
Method: In two αLisa assays the levels of Abeta 1-42 produced and secreted into the medium of human neuroblastoma SKNBE2 cells are quantified. The assay is based on the human neuroblastoma SKNBE2 expressing the wild type Amyloid Precursor Protein (hAPP695). The compounds are diluted and added to these cells, incubated for 18 hours and then measurements of Abeta 1-42 are taken. Abeta 1-42 are measured by sandwich αLisa. αLisa is a sandwich assay using biotinylated antibody AbN/25 attached to streptavidin coated beads and antibody cAb42/26 conjugated acceptor beads for the detection of Abeta 1-42 respectively. In the presence of Abeta 1-42, the beads come into close proximity. The excitation of the donor beads provokes the release of singlet oxygen molecules that trigger a cascade of energy transfer in the acceptor beads, resulting in light emission. Light emission is measured after 1 hour incubation (excitation at […] and emission at 615 nm).
as §2

[3] = target: T2, recombinant BACE2 protein (Homo sapiens, UniProt Q9Y5Z0); experiment: BACE2 biochemical FRET based assay; conditions: BACE2, 450 minutes at room temperature, pH 5.0; read-out: Biochemical FRET based assay pIC50 (converted)
T2 construct: recombinant BACE2 protein in a final concentration of 0.4 μg/ml
T2 sequence (Q9Y5Z0 63-518): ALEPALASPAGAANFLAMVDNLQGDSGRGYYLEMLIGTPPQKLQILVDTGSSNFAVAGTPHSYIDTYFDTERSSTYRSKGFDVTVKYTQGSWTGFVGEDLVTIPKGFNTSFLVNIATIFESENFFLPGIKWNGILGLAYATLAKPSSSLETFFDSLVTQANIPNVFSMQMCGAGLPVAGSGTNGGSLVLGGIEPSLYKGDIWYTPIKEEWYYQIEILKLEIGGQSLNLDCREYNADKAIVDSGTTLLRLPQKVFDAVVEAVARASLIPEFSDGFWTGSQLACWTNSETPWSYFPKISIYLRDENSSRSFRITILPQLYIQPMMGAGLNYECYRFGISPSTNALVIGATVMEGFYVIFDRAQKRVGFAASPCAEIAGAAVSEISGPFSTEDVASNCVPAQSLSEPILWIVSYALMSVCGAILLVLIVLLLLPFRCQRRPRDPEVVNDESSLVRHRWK
Description: as §1, with “assay” for “assay is an APP derived 13 amino acids peptide that”, “the beta-secretase,” for “BACE1,”
Briefly in a 384-well format recombinant BACE2 protein in a final concentration of 0.4 μg/ml is incubated for 450 minutes at room temperature with 10 μM substrate in incubation buffer (50 mM Citrate buffer pH 5.0, 0.05% PEG, no DMSO) in the absence or presence of compound. Next the amount of proteolysis is directly measured by fluorescence measurement at T=0 and T=450 (excitation at 320 nm and emission at 405 nm). Results are expressed in RFU (Relative Fluorescence Units), as difference between T450 and T0.
as §2

Row | Structure (SMILES) | IC50 [1] [µM] | Cellular αLisa assay in SKNBE2 cells Abeta 42 pIC50 [2] | IC50 [3] [µM] | IC50 [2] [µM]
1 | COc1cnc(C(=O)Nc2ccc(F)c(C3(C)CCC(C)(C#N)C(N)=N3)c2)cn1 (single isomer, unassigned) [Compound 15] | 0.00977 | 8.16 | 0.0661 | –
2 | COc1cnc(C(=O)Nc2ccc(F)c(C3(C)CCC(C)(C#N)C(N)=N3)c2)cn1 (single isomer, unassigned) [Compound 16] | 0.257 | 7.35 | 1.35 | –
3 | COc1cnc(C(=O)Nc2ccc(F)c([C@]3(CF)CC[C@](C)(S(C)(=O)=O)C(N)=N3)c2)cn1 [Compound 1] | 2.63 | – | > 10 | 1.35
4 | COc1cnc(C(=O)Nc2ccc(F)c([C@]3(CF)CC[C@](C)(C#N)C(N)=N3)c2)cn1 [Compound 4] | 0.851 | – | 5.75 | 0.692
5 | COc1cnc(C(=O)Nc2ccc(F)c([C@]3(CF)CC[C@@](C)(C#N)C(N)=N3)c2)cn1 [Compound 5] | 0.0537 | – | 0.417 | 0.0501
6 | COc1cnc(C(=O)Nc2ccc(F)c([C@@]3(C)N=C(N)[C@@](C)(C#N)C[C@H]3F)c2)cn1 [Compound 6] | 0.145 | – | 0.537 | 0.24
7 | COc1cnc(C(=O)Nc2ccc(F)c([C@@]3(C)N=C(N)[C@@](C)(C#N)C[C@@H]3F)c2)cn1 [Compound 7] | 0.0794 | – | 0.562 | 0.0661
8 | COc1cnc(C(=O)Nc2ccc(F)c([C@@]3(C)N=C(N)[C@](C)(C#N)C[C@@H]3F)c2)cn1 [Compound 8] | 0.0129 | – | 0.0708 | 0.0132
9 | COc1cnc(C(=O)Nc2ccc(F)c([C@]3(C)CC[C@@](C)(S(C)(=O)=O)C(N)=N3)c2)cn1 [Compound 10] | 0.00389 | – | 0.0219 | 0.00112
10 | COc1cnc(C(=O)Nc2ccc(F)c([C@]3(C(F)F)CC[C@](C)(C#N)C(N)=N3)c2)cn1 [Compound 11] | 0.138 | – | 0.891 | 0.339
11 | COc1cnc(C(=O)Nc2ccc(F)c([C@@]3(C(F)F)CC[C@@](C)(C#N)C(N)=N3)c2)cn1 [Compound 12] | 6.76 | – | > 10 | > 8.91
12 | COc1cnc(C(=O)Nc2ccc(F)c([C@@]3(C(F)F)CC[C@](C)(C#N)C(N)=N3)c2)cn1 [Compound 13] | > 10 | – | > 10 | > 8.91
13 | COc1cnc(C(=O)Nc2ccc(F)c([C@]3(C(F)F)CC[C@@](C)(C#N)C(N)=N3)c2)cn1 [Compound 14] | 0.0117 | – | 0.115 | 0.049
14 | COc1cnc(C(=O)Nc2ccc(F)c([C@@]3(C)N=C(N)[C@](C)(S(C)(=O)=O)C[C@@H]3F)c2)cn1 [Compound 17] | 0.0309 | – | 0.0933 | 0.0145
15 | COc1cnc(C(=O)Nc2ccc(F)c([C@@]3(C)N=C(N)[C@@](C)(S(C)(=O)=O)C[C@@H]3F)c2)cn1 [Compound 18] | 5.75 | – | > 10 | 3.55
16 | C[C@]1(S(C)(=O)=O)CC[C@@](CF)(c2cc(NC(=O)c3ccc(F)cn3)ccc2F)N=C1N [Compound 19] | 0.38 | – | 0.302 | 0.38
17 | C[C@]1(S(C)(=O)=O)CC(F)(F)[C@@](C)(c2cc(NC(=O)c3cnc(OCF)cn3)ccc2F)N=C1N [Compound 23] | 1.66 | – | 4.68 | 4.47
18 | C[C@]1(c2cc(NC(=O)c3cnc(OCF)cn3)ccc2F)N=C(N)[C@](C)(S(C)(=O)=O)CC1(F)F [Compound 24] | 0.0912 | – | 0.977 | 0.468
19 | CC1(S(=O)(=O)C2CC2)CCC(CF)(c2cc(NC(=O)c3ccc(F)cn3)ccc2F)N=C1N (stereo not drawn) [Compound 25] | 0.0024 | – | 0.00204 | 0.00372
20 | CCOc1cnc(C(=O)Nc2ccc(F)c(C3(CF)CCC(C)(S(C)(=O)=O)C(N)=N3)c2)cn1 (stereo not drawn) [Compound 37] | 0.00372 | – | 0.0324 | 0.00347
21 | CC1(S(C)(=O)=O)CCC(CF)(c2cc(NC(=O)c3ncc(F)cn3)ccc2F)N=C1N (stereo not drawn) [Compound 38] | 0.00389 | – | 0.00417 | 0.00708
22 | Cc1nc(C(=O)Nc2ccc(F)c(C3(CF)CCC(C)(S(C)(=O)=O)C(N)=N3)c2)co1 (stereo not drawn) [Compound 40] | 0.00457 | – | 0.00331 | 0.00186
23 | CC1(S(C)(=O)=O)CCC(CF)(c2cc(NC(=O)c3cnc(C(F)F)cn3)ccc2F)N=C1N (stereo not drawn) [Compound 42] | 0.0038 | – | 0.0224 | 0.0024
24 | CC1(S(C)(=O)=O)CCC(CF)(c2cc(NC(=O)c3ncc(C(F)(F)F)cn3)ccc2F)N=C1N (stereo not drawn) [Compound 43] | 0.00912 | – | 0.0646 | 0.00447
25 | CC1(S(C)(=O)=O)CCC(CF)(c2cc(NC(=O)c3ncc(Cl)cn3)ccc2F)N=C1N (stereo not drawn) [Compound 44] | 0.00363 | – | 0.00339 | 0.00115
26 | COc1cnc(C(=O)Nc2ccc(F)c(C3(CF)CCC(C)(S(C)(=O)=O)C(N)=N3)c2)nc1 (stereo not drawn) [Compound 45] | 0.00316 | – | 0.0135 | 0.00324
27 | C[C@@]1(S(C)(=O)=O)CC[C@@](CF)(c2cc(NC(=O)c3ccc(F)cn3)cc(F)c2F)N=C1N [Compound 47] | 0.00355 | – | 0.00437 | 0.0166
28 | CO[C@@H]1C[C@@](C)(S(C)(=O)=O)C(N)=N[C@]1(C)c1cc(NC(=O)c2cnc(OCF)cn2)ccc1F [Compound 48a] | 0.024 | – | 0.447 | 0.0166
29 | CO[C@H]1C[C@@](C)(C#N)C(N)=N[C@]1(C)c1cc(NC(=O)c2cnc(OCF)cn2)ccc1F [Compound 49a] | 0.0339 | – | 0.324 | 0.017
